# Literature values, collected in patent publication US20250134875A1, “FORMULATIONS OF ALK-5 KINASE INHIBITORS AND USES THEREOF” (Thirona Bio, Inc., priority 2023, published 2025).
# Key:
# [1] = test system: mouse fibroblasts and fat precursor cells; conditions: cited from earlier work
# [2] = test system: fibroblasts derived from human PD plaque; conditions: cited from earlier work
# rat PD models = conditions: cited from earlier work
# [3] = test system: TGF-β-induced expression of ACTA2, Col1a1 and Col3a1; conditions: 3D culture model of DC-specimens; cited from earlier work
# [4] = test system: human outer root sheath cells; conditions: cited from earlier work
# A549 cells = conditions: cited from earlier work
# mouse skin = conditions: cited from earlier work
# TNF = molecular target: T1, TNF (Homo sapiens, UniProt P01375); conditions: cited from earlier work
# T1 construct: host or cells: Dupuytren's nodules of patients (in vivo, endogenous)
# T1 sequence (P01375 77-233 limits assumed): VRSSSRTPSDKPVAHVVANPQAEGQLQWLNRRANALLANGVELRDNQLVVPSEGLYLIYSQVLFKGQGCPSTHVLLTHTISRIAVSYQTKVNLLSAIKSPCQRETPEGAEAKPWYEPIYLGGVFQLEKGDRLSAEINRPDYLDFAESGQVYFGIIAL
# TGF-β = conditions: cited from earlier work
compound,measurement,setting,value
Cc1cccc(-c2nn(C(=S)Nc3ccccc3)cc2-c2ccnc3ccccc23)n1 [Formulation A83-01],Brown fat adipogenesis,[1],induced brown fat adipogenesis
Cc1cccc(-c2[nH]c(Cc3cccc(C(N)=O)c3)nc2-c2ccc3nccnc3c2)n1 [IN-1130],"TGF-β1-induced production of PAI-1, fibronectin, collagen 1 and collagen 4",[2],significantly reduced
same,Curvature and fibrosis,rat PD models,improved curvature and fibrosis
Cc1cccc(-c2nn3c(c2-c2ccnc4ccc(C(N)=O)cc24)CCC3)n1 [LY2157299],Brown fat adipogenesis,[1],induced brown fat adipogenesis
NC(=O)c1ccc(-c2nc(-c3ccc4c(c3)OCO4)c(-c3ccccn3)[nH]2)cc1 [SB-431542],"TGF-β-induced expression of ACTA2, Col1a1 and Col3a1",[3],suppressed
same,Brown fat adipogenesis,[1],induced brown fat adipogenesis
Cc1csc(-c2[nH]cnc2-c2ccc3ncsc3c2)n1 [TP0427736],Growth inhibition of human outer root sheath cells,[4],decreased the growth inhibition
same,Smad2/3 phosphorylation,A549 cells,inhibited
same,Average hair follicle length during transition from late anagen to catagen phase,mouse skin; repeated topical application,suppressed the shortening
same,Smad2 phosphorylation in mouse skin,mouse skin; topical application,significantly decreased
COc1ccc(/C=C/C(=O)Nc2ccccc2C(=O)O)cc1OC [Tanilast],Brown fat adipogenesis,[1],induced brown fat adipogenesis
adalimumab,Phenotype of myofibroblasts,"TNF; Phase 2a trial, intranodular",downregulated the phenotype of myofibroblasts
same,Nodule harness and size by ultrasound,TNF; Phase 2b trial,decreased nodule harness and size
fresolimumab: TGF-β neutralizing antibody which targets all three TGF-β isoforms,"Clinical skin disease (fibrosis), modified Rodnan skin score (MRSS)","TGF-β; systemic sclerosis patients (N=15), 1 mg/kg twice or 5 mg/kg once, p=0.0002 within 3 weeks",dramatically reversed
same,Pro-fibrotic TGF-β gene expression profiles in the skin,TGF-β; systemic sclerosis patients,decreased
same,Systemic side effects,TGF-β; systemic sclerosis patients,"significant systemic side effects, notably bleeding"
